Reference: patent US5955440A, “Macrolide LHRH antagonists” (Abbott Laboratories, priority 1998, dated 1999)

These molecules were tested against T1, LHRH rat pituitary receptor (Rattus norvegicus, UniProt P30969) (assay: LHRH rat pituitary receptor binding (pKI)). Conditions: negative logarithm of the equilibrium dissociation constants, Table 1.
T1 construct: from tissue; host or cells: rat pituitary
T1 sequence (P30969 1-327): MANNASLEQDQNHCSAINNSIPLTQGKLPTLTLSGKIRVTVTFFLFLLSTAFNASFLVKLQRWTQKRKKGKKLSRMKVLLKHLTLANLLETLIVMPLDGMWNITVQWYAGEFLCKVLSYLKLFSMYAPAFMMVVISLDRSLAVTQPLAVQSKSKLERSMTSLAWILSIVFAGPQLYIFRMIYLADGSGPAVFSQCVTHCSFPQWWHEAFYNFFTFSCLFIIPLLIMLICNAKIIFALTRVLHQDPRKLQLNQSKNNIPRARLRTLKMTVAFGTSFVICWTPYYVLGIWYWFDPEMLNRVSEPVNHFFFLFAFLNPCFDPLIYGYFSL
Method: Representative compounds of the present invention were evaluated in in vitro tests for LHRH rat pituitary receptor binding (pKI) and for LH inhibition from rat pituitary cells for antagonist potency (pA2). The tests employed the methods detailed in F. Haviv, et al. J. Med. Chem., 32: 2340-2344 (1989). The receptor binding affinity (pKI) is the negative logarithm of the equilibrium dissociation constants.

Row | receptor binding affinity (pKI) | Structure (SMILES)
1 | 8.17 | CC[C@H]1OC(=O)[C@H](C)[C@@H](O[C@H]2C[C@@](C)(OC)[C@@H](O)[C@H](C)O2)[C@H](C)[C@@H](O[C@@H]2O[C@H](C)C[C@H](N(C)CCC3CC3)[C@H]2O)[C@](C)(OC)C[C@@H](C)C(=O)[C@H](C)[C@H]2N(CCc3ccc(Cl)cc3)C(=O)O[C@]12C [Example 38, 3'-N-Desmethyl-3'-N-[2-(cyclopropyl)-ethyl]-11-deoxy-11-[carboxy-(4-chlorophenethylamino)]-6-O-methyl-erythromycin A 11,12-(cyclic carbamate)]

Same assay, conditions: negative logarithm of the equilibrium dissociation constants, Table 1, read-out: receptor binding affinity (pKI) (converted)

Row | Structure (SMILES) | Ki [nM]
2 | CC[C@H]1OC(=O)[C@H](C)[C@@H](O[C@H]2C[C@@](C)(OC)[C@@H](O)[C@H](C)O2)[C@H](C)[C@@H](O[C@@H]2O[C@H](C)C[C@H](N(C)C(C)C)[C@H]2O)[C@](C)(OC)C[C@@H](C)C(=O)[C@H](C)[C@H]2N(CCc3ccc(Cl)c(F)c3)C(=O)O[C@]12C [Example 17, 3'-N-Desmethyl-3'-N-isopropyl-11-deoxy-11-[carboxy-(4-chloro-3-fluorophenethylamino)]-6-O-methyl-erythromycin A 11,12-(cyclic carbamate)] | 4.27
3 | CC[C@H]1OC(=O)[C@H](C)[C@@H](O[C@H]2C[C@@](C)(OC)[C@@H](O)[C@H](C)O2)[C@H](C)[C@@H](O[C@@H]2O[C@H](C)C[C@H](N(C)C3CCCC3)[C@H]2O)[C@](C)(OC)C[C@@H](C)C(=O)[C@H](C)[C@H]2N(CCc3ccc(Cl)c(F)c3)C(=O)O[C@]12C [Example 18, 3'-N-Desmethyl-3'-N-cyclopentyl-11-deoxy-11-[carboxy-(4-chloro-3-fluorophenethylamino)]-6-O-methyl-erythromycin A 11,12-(cyclic carbamate)] | 5.89
4 | CC[C@H]1OC(=O)[C@H](C)[C@@H](O[C@H]2C[C@@](C)(OC)[C@@H](O)[C@H](C)O2)[C@H](C)[C@@H](O[C@@H]2O[C@H](C)C[C@H](N(C)CC3CCC3)[C@H]2O)[C@](C)(OC)C[C@@H](C)C(=O)[C@H](C)[C@H]2N(CCc3ccc(Cl)cc3)C(=O)O[C@]12C [Example 19, 3'-N-Desmethyl-3'-N-cyclobutylmethyl-11-deoxy-11-[carboxy-(4-chlorophenethylamino)]-6-O-methyl-erythromycin A 11,12-(cyclic carbamate)] | 1.58
5 | CC[C@H]1OC(=O)[C@H](C)[C@@H](O[C@H]2C[C@@](C)(OC)[C@@H](O)[C@H](C)O2)[C@H](C)[C@@H](O[C@@H]2O[C@H](C)C[C@H](N(C)C3CCCC3)[C@H]2O)[C@](C)(OC)C[C@@H](C)C(=O)[C@H](C)[C@H]2N(CCc3cccc(Cl)c3)C(=O)O[C@]12C [Example 24, 3'-N-Desmethyl-3'-N-cyclopentyl-11-deoxy-11-[carboxy-(3-chlorophenethylamino)]-6-O-methyl-erythromycin A 11,12-(cyclic carbamate)] | 2.75
6 | CC[C@H]1OC(=O)[C@H](C)[C@@H](O[C@H]2C[C@@](C)(OC)[C@@H](O)[C@H](C)O2)[C@H](C)[C@@H](O[C@@H]2O[C@H](C)C[C@H](N(C)Cc3ccncc3)[C@H]2O)[C@](C)(OC)C[C@@H](C)C(=O)[C@H](C)[C@H]2N(CCc3ccc(Cl)cc3)C(=O)O[C@]12C [Example 34, 3'-N-Desmethyl-3'-N-(4-pyridylmethyl)-11-deoxy-11-[carboxy-(4-chlorophenethylamino)]-6-O-methyl-erythromycin A 11,12-(cyclic carbamate)] | 10
7 | CCC(C)N(C)[C@H]1C[C@@H](C)O[C@@H](O[C@@H]2[C@@H](C)[C@H](O[C@H]3C[C@@](C)(OC)[C@@H](O)[C@H](C)O3)[C@@H](C)C(=O)O[C@H](CC)[C@@]3(C)OC(=O)N(CCc4ccc(Cl)cc4)[C@@H]3[C@@H](C)C(=O)[C@H](C)C[C@@]2(C)OC)[C@@H]1O (some centres unmarked) [Example 35, 3'-N-Desmethyl-3'-N-(2-butyl)-11-deoxy-11-[carboxy-(4-chlorophenethylamino)]-6-O-methyl-erythromycin A 11,12-(cyclic carbamate)] | 7.59
8 | CCC(CC)N(C)[C@H]1C[C@@H](C)O[C@@H](O[C@@H]2[C@@H](C)[C@H](O[C@H]3C[C@@](C)(OC)[C@@H](O)[C@H](C)O3)[C@@H](C)C(=O)O[C@H](CC)[C@@]3(C)OC(=O)N(CCc4ccc(Cl)cc4)[C@@H]3[C@@H](C)C(=O)[C@H](C)C[C@@]2(C)OC)[C@@H]1O [Example 36, 3'-N-Desmethyl-3'-N-(3-pentyl)-11-deoxy-11-[carboxy-(4-chlorophenethylamino)]-6-O-methyl-erythromycin A 11,12-(cyclic carbamate)] | 9.12
9 | CC[C@H]1OC(=O)[C@H](C)[C@@H](O[C@H]2C[C@@](C)(OC)[C@@H](O)[C@H](C)O2)[C@H](C)[C@@H](O[C@@H]2O[C@H](C)C[C@H](N(C)CC3CC3)[C@H]2O)[C@](C)(OC)C[C@@H](C)C(=O)[C@H](C)[C@H]2N(CCc3ccc(Cl)cc3)C(=O)O[C@]12C [Example 37, 3'-N-Desmethyl-3'-N-(cyclopropylmethyl)-11-deoxy-11-[carboxy-(4-chlorophenethylamino)]-6-O-methyl-erythromycin A 11,12-(cyclic carbamate)] | 9.12
10 | CCCN(C)[C@H]1C[C@@H](C)O[C@@H](O[C@@H]2[C@@H](C)[C@H](O[C@H]3C[C@@](C)(OC)[C@@H](O)[C@H](C)O3)[C@@H](C)C(=O)O[C@H](CC)[C@@]3(C)OC(=O)N(CCc4ccc(OC)cc4)[C@@H]3[C@@H](C)C(=O)[C@H](C)C[C@@]2(C)OC)[C@@H]1O [Example 39, 3'-N-Desmethyl-3'-N-propyl-11-deoxy-11-[carboxy-(4-methoxyphenethylamino)]-6-O-methyl-erythromycin A 11,12-(cyclic carbamate)] | 5.13
11 | CC[C@H]1OC(=O)[C@H](C)[C@@H](O[C@H]2C[C@@](C)(OC)[C@@H](O)[C@H](C)O2)[C@H](C)[C@@H](O[C@@H]2O[C@H](C)C[C@H](N(C)C3CCCC3)[C@H]2O)[C@](C)(OC)C[C@@H](C)C(=O)[C@H](C)[C@H]2N(CCc3ccc(OC)cc3)C(=O)O[C@]12C [Example 40, 3'-N-Desmethyl-3'-N-cyclopentyl-11-deoxy-11-[carboxy-(4-methoxyphenethylamino)]-6-O-methyl-erythromycin A 11,12-(cyclic carbamate)] | 5.75

The next lines start with the values.

Row | Ki [nM] | Structure (SMILES)
12 | 8.51 | CCCN(C)[C@H]1C[C@@H](C)O[C@@H](O[C@@H]2[C@@H](C)[C@H](O[C@H]3C[C@@](C)(OC)[C@@H](O)[C@H](C)O3)[C@@H](C)C(=O)O[C@H](CC)[C@@]3(C)OC(=O)N(CCc4ccc(C)c(C)c4)[C@@H]3[C@@H](C)C(=O)[C@H](C)C[C@@]2(C)OC)[C@@H]1O [Example 41, 3'-N-Desmethyl-3'-N-propyl-11-deoxy-11-[carboxy-(3,4-dimethylphenethylamino)]-6-O-methyl-erythromycin A 11,12-(cyclic carbamate)]
13 | 7.24 | CC[C@H]1OC(=O)[C@H](C)[C@@H](O[C@H]2C[C@@](C)(OC)[C@@H](O)[C@H](C)O2)[C@H](C)[C@@H](O[C@@H]2O[C@H](C)C[C@H](N(C)C3CCCC3)[C@H]2O)[C@](C)(OC)C[C@@H](C)C(=O)[C@H](C)[C@H]2N(CCc3ccc(OC)c(Br)c3)C(=O)O[C@]12C [Example 42, 3'-N-Desmethyl-3'-N-cyclopentyl-11-deoxy-11-[carboxy-(3-bromo-4-methoxyphenethylamino)]-6-O-methyl-erythromycin A 11,12-(cyclic carbamate)]
14 | 3.55 | CCCN(C)[C@H]1C[C@@H](C)O[C@@H](O[C@@H]2[C@@H](C)[C@H](O[C@H]3C[C@@](C)(OC)[C@@H](O)[C@H](C)O3)[C@@H](C)C(=O)O[C@H](CC)[C@@]3(C)OC(=O)N(CCc4ccc(OC)c(Br)c4)[C@@H]3[C@@H](C)C(=O)[C@H](C)C[C@@]2(C)OC)[C@@H]1O [Example 43, 3'-N-Desmethyl-3'-N-propyl-11-deoxy-11-[carboxy-(3-bromo-4-methoxyphenethylamino)]-6-O-methyl-erythromycin A 11,12-(cyclic carbamate)]
15 | 1.45 | CCCN(C)[C@H]1C[C@@H](C)O[C@@H](O[C@@H]2[C@@H](C)[C@H](O[C@H]3C[C@@](C)(OC)[C@@H](O)[C@H](C)O3)[C@@H](C)C(=O)O[C@H](CC)[C@@]3(C)OC(=O)N(CCc4ccc(F)c(Cl)c4)[C@@H]3[C@@H](C)C(=O)[C@H](C)C[C@@]2(C)OC)[C@@H]1O [Example 44, 3'-N-Desmethyl-3'-N-propyl-11-deoxy-11-[carboxy-(3-chloro-4-fluorophenethylamino)]-6-O-methyl-erythromycin A 11,12-(cyclic carbamate)]
16 | 3.55 | CC[C@H]1OC(=O)[C@H](C)[C@@H](O[C@H]2C[C@@](C)(OC)[C@@H](O)[C@H](C)O2)[C@H](C)[C@@H](O[C@@H]2O[C@H](C)C[C@H](N(C)Cc3ccco3)[C@H]2O)[C@](C)(OC)C[C@@H](C)C(=O)[C@H](C)[C@H]2N(CCc3ccc(F)c(Cl)c3)C(=O)O[C@]12C [Example 45, 3'-N-Desmethyl-3'-N-(2-furyl)methyl-11-deoxy-11-[carboxy-(3-chloro-4-fluorophenethylamino)]-6-O-methyl-erythromycin A 11,12-(cyclic carbamate)]
17 | 1.15 | CC[C@H]1OC(=O)[C@H](C)[C@@H](O[C@H]2C[C@@](C)(OC)[C@@H](O)[C@H](C)O2)[C@H](C)[C@@H](O[C@@H]2O[C@H](C)C[C@H](N(C)Cc3ccc(CO)o3)[C@H]2O)[C@](C)(OC)C[C@@H](C)C(=O)[C@H](C)[C@H]2N(CCc3ccc(F)c(Cl)c3)C(=O)O[C@]12C [Example 46, 3'-N-Desmethyl-3'-N-[2-(5-hydroxymethyl)furyl]methyl-11-deoxy-11-[carboxy-(3-chloro-4-fluorophenethylamino)]-6-O-methyl-erythromycin A 11,12-(cyclic carbamate)]
